# Results from patent US11014911B2, “CDK2 inhibitors” (Pfizer Inc., priority 2019, dated 2021).
# Biological target: CDK2/Cyclin E1 full length (Homo sapiens (Human), UniProt P24941)
# Assay: CDK2/Cyclin E1 full length mobility shift assay
# Assay type: biochemical
row,Structure (SMILES),Ki [nM]
1,"CCCNC(=O)O[C@@H]1CC[C@H](c2cc(NC(=O)Cc3ccccc3S(C)(=N)=O)n[nH]2)C1 (single isomer, unassigned) [Example 201]",1.91
2,"CC(C)NC(=O)O[C@@H]1CC[C@H](c2cc(NC(=O)Cc3cnc(C(F)(F)F)cn3)n[nH]2)C1 [Example 287, (1R,3S)-3-[3-({[5-(trifluoromethyl)pyrazin-2-yl]acetyl}amino)-1H-pyrazol-5-yl]cyclopentyl propan-2-ylcarbamate]",2.26
3,"CCC1(NC(=O)O[C@@H]2CC[C@H](c3cc(NC(=O)Cc4cnc(C)cn4)n[nH]3)C2)CC1 [Example 449, (1R,3S)-3-(3-{[(5-methylpyrazin-2-yl)acetyl]amino}-1H-pyrazol-5-yl)cyclopentyl (1-ethylcyclopropyl)carbamate]",0.39
4,"COCCn1nccc1C(=O)Nc1cc([C@H]2CC[C@@H](OC(=O)NC(C)CC(F)(F)F)C2)[nH]n1 (single isomer, unassigned) [Example 88]",0.15
5,"C[C@]1(O)CC[C@H](NC(=O)O[C@H]2CC[C@@H](c3cc(NC(=O)Cc4ccc(F)cc4)n[nH]3)C2)CC1 [Example 561, (1S,3R)-3-(3-{[(4-fluorophenyl)acetyl]amino}-1H-pyrazol-5-yl)cyclopentyl (trans-4-hydroxy-4-methylcyclohexyl)carbamate]",1.8
6,"Cc1cnc(CC(=O)Nc2cc([C@H]3CC[C@@H](OC(=O)NCCC(F)(F)F)C3)[nH]n2)cn1 [Example 220, (1R,3S)-3-(3-{[(5-methylpyrazin-2-yl)acetyl]amino}-1H-pyrazol-5-yl)cyclopentyl (3,3,3-trifluoropropyl)carbamate]",3.26
7,Cc1ncc(CC(=O)Nc2cc([C@@H]3CC[C@H](OC(=O)NC(C)C)C3)[nH]n2)s1 [Example 26],0.21
8,"COc1cnc(CC(=O)Nc2cc([C@H]3CC[C@@H](OC(=O)NC4(C)CCOC4)C3)[nH]n2)cn1 (single isomer, unassigned) [Example 485]",1.41
9,"CN1CC(CNC(=O)O[C@H]2CC[C@@H](c3cc(NC(=O)Cc4cc(F)cc(F)c4)n[nH]3)C2)OCC1=O (single isomer, unassigned) [Example 584]",3.84
10,"Cc1nc(CC(=O)Nc2cc([C@H]3CC[C@@H](OC(=O)NC(C)(C)C)C3)[nH]n2)cs1 [Example 304, (1R,3S)-3-(3-{[(2-methyl-1,3-thiazol-4-yl)acetyl]amino}-1H-pyrazol-5-yl)cyclopentyl tert-butylcarbamate]",1.41
11,"CC[C@H](C)NC(=O)O[C@@H]1CC[C@H](c2cc(NC(=O)Cc3c(S(C)(=O)=O)c4ccccc4n3C)n[nH]2)C1 [Example 377, (1R,3S)-3-[3-({[1-methyl-3-(methylsulfonyl)-1H-indol-2-yl]acetyl}amino)-1H-pyrazol-5-yl]cyclopentyl (2S)-butan-2-ylcarbamate]",1.14
12,"C[C@H]1CCN1C(=O)O[C@@H]1CC[C@H](c2cc(NC(=O)c3ccnn3CCN(C)C)n[nH]2)C1 [Example 596, (1R,3S)-3-{3-[({1-[2-(dimethylamino)ethyl]-1H-pyrazol-5-yl}carbonyl)amino]-1H-pyrazol-5-yl}cyclopentyl (2S)-2-methylazetidine-1-carboxylate]",1.75
13,"Cc1ccnc(CC(=O)Nc2cc([C@H]3CC[C@@H](OC(=O)NC4(C)CC4)C3)[nH]n2)c1Cl [Example 441, (1R,3S)-3-(3-{[(3-chloro-4-methylpyridin-2-yl)acetyl]amino}-1H-pyrazol-5-yl)cyclopentyl (1-methylcyclopropyl)carbamate]",1.42
14,"CC(C)(C)NC(=O)O[C@@H]1CC[C@H](c2cc(NC(=O)Cc3cc(C(F)(F)F)ccn3)n[nH]2)C1 [Example 316, (1R,3S)-3-[3-({[4-(trifluoromethyl)pyridin-2-yl]acetyl}amino)-1H-pyrazol-5-yl]cyclopentyl tert-butylcarbamate]",1.3
15,"Cc1ccc(C(=O)Nc2cc([C@H]3CC[C@@H](OC(=O)NC(C)CC(F)(F)F)C3)[nH]n2)cn1 (single isomer, unassigned) [Example 69]",4.26
16,"CCC(CO)CNC(=O)O[C@@H]1CC[C@H](c2cc(NC(=O)Cc3cnc(C)o3)n[nH]2)C1 (single isomer, unassigned) [Example 526]",3.95
17,"CCC1CCN1C(=O)O[C@@H]1CC[C@H](c2cc(NC(=O)Cc3ncc(C)o3)n[nH]2)C1 (single isomer, unassigned) [Example 600]",2.12
18,"CC(CC(F)(F)F)NC(=O)O[C@@H]1CC[C@H](c2cc(NC(=O)Cc3ccon3)n[nH]2)C1 (single isomer, unassigned) [Example 63]",1.25
19,"CC(C)NC(=O)O[C@H]1CC[C@@H](c2cc(NC(=O)Cc3ccccn3)n[nH]2)C1 [Example 264, (1S,3R)-3-{3-[(pyridin-2-ylacetyl)amino]-1H-pyrazol-5-yl}cyclopentyl propan-2-ylcarbamate]",1.83
20,"Cn1ncc(CC(=O)Nc2cc([C@H]3CC[C@@H](OC(=O)NC4(C)CCOC4)C3)[nH]n2)c1C(F)(F)F (single isomer, unassigned) [Example 496]",2.25

row,Structure (SMILES),Ki [nM]
1,"Cc1coc(CC(=O)Nc2cc([C@H]3CC[C@@H](OC(=O)N4CCC[C@@H]4C)C3)[nH]n2)n1 [Example 636, (1R,3S)-3-(3-{[(4-methyl-1,3-oxazol-2-yl)acetyl]amino}-1H-pyrazol-5-yl)cyclopentyl (2S)-2-methylpyrrolidine-1-carboxylate]",0.83
2,"COc1ccc(S(C)(=O)=O)c(CC(=O)Nc2cc([C@H]3CC[C@@H](OC(=O)NCCC(F)(F)F)C3)[nH]n2)c1 [Example 224, (1R,3S)-3-[3-({[5-methoxy-2-(methylsulfonyl)phenyl]acetyl}amino)-1H-pyrazol-5-yl]cyclopentyl (3,3,3-trifluoropropyl)carbamate]",0.31
3,"Cc1ncc(CC(=O)Nc2cc([C@H]3CC[C@@H](OC(=O)NCC(F)(F)F)C3)[nH]n2)s1 [Example 254, (1R,3S)-3-(3-{[(2-methyl-1,3-thiazol-5-yl)acetyl]amino}-1H-pyrazol-5-yl)cyclopentyl (2,2,2-trifluoroethyl)carbamate]",2.17
4,"CC[C@H](C)NC(=O)O[C@@H]1CC[C@H](c2cc(NC(=O)Cc3cc(OC)ncc3OC)n[nH]2)C1 [Example 358, (1R,3S)-3-(3-{[(2,5-dimethoxypyridin-4-yl)acetyl]amino}-1H-pyrazol-5-yl)cyclopentyl (2S)-butan-2-ylcarbamate]",1.65
5,"COc1cc(C(=O)Nc2cc([C@H]3CC[C@@H](OC(=O)NC4(C)CCOC4)C3)[nH]n2)n(C)n1 (single isomer, unassigned) [Example 479]",0.89
6,"COc1cnc(CC(=O)Nc2cc([C@H]3CC[C@@H](OC(=O)NC(C)CC(F)(F)F)C3)[nH]n2)cn1 (single isomer, unassigned) [Example 67]",1.5
7,"Cc1ncc(CC(=O)Nc2cc([C@H]3CC[C@@H](OC(=O)NCC(F)F)C3)[nH]n2)s1 [Example 249, (1R,3S)-3-(3-{[(2-methyl-1,3-thiazol-5-yl)acetyl]amino}-1H-pyrazol-5-yl)cyclopentyl (2,2-difluoroethyl)carbamate]",2.32
8,"O=C(Cc1ccno1)Nc1cc([C@H]2CC[C@@H](OC(=O)NCC(F)F)C2)[nH]n1 [Example 246, (1R,3S)-3-{3-[(1,2-oxazol-5-ylacetyl)amino]-1H-pyrazol-5-yl}cyclopentyl (2,2-difluoroethyl)carbamate]",3.29
9,CC1(NC(=O)O[C@@H]2CC[C@H](c3cc(NC(=O)Cc4cnc(C(F)(F)F)cn4)n[nH]3)C2)CC1 [Example 130],0.25
10,"Cn1ncc(CC(=O)Nc2cc([C@H]3CC[C@@H](OC(=O)NCCC(F)(F)F)C3)[nH]n2)n1 [Example 217, (1R,3S)-3-(3-{[(2-methyl-2H-1,2,3-triazol-4-yl)acetyl]amino}-1H-pyrazol-5-yl)cyclopentyl (3,3,3-trifluoropropyl)carbamate]",2.22
11,"COC[C@H](C)NC(=O)O[C@@H]1CC[C@H](c2cc(NC(=O)Cc3ccccc3)[nH]n2)C1 [Example 517, (1R,3S)-3-{5-[(phenylacetyl)amino]-1H-pyrazol-3-yl}cyclopentyl [(2S)-1-methoxypropan-2-yl]carbamate]",1.29
12,"C[C@H]1CCCN1C(=O)O[C@@H]1CC[C@H](c2cc(NC(=O)Cc3ccccn3)n[nH]2)C1 [Example 630, (1R,3S)-3-{3-[(pyridin-2-ylacetyl)amino]-1H-pyrazol-5-yl}cyclopentyl (2S)-2-methylpyrrolidine-1-carboxylate]",1.43
13,"COc1ccc(S(C)(=O)=O)c(CC(=O)Nc2cc([C@H]3CC[C@@H](OC(=O)NC(C)C(F)(F)F)C3)[nH]n2)c1 (single isomer, unassigned) [Example 292]",0.86
14,"COc1ccc(CC(=O)Nc2cc([C@H]3CC[C@@H](OC(=O)N4C[C@@H](C#N)[C@@H]4C)C3)[nH]n2)cn1 (single isomer, unassigned) [Example 157]",1.86
15,"COc1cnc(CC(=O)Nc2cc([C@H]3CC[C@@H](OC(=O)NC4(CC(F)(F)F)CC4)C3)[nH]n2)cn1 [Example 456, (1R,3S)-3-(3-{[(5-methoxypyrazin-2-yl)acetyl]amino}-1H-pyrazol-5-yl)cyclopentyl [1-2,2,2-trifluoroethyl)cyclopropyl] carbamate]",0.38
16,"CC(C)NC(=O)O[C@@H]1CC[C@H](c2cc(NC(=O)Cc3ccccn3)n[nH]2)C1 [Example 265, (1R,3S)-3-{3-[(pyridin-2-ylacetyl)amino]-1H-pyrazol-5-yl}cyclopentyl propan-2-ylcarbamate]",1.91
17,"Cc1nc(CC(=O)Nc2cc([C@H]3CC[C@@H](OC(=O)NC4(C)CC4)C3)[nH]n2)cs1 [Example 431, (1R,3S)-3-(3-{[(2-methyl-1,3-thiazol-4-yl)acetyl]amino}-1H-pyrazol-5-yl)cyclopentyl (1-methylcyclopropyl)carbamate]",1.19
18,"COc1ccc(CC(=O)Nc2cc([C@H]3CC[C@@H](OC(=O)N4CCC4C)C3)[nH]n2)cn1 (single isomer, unassigned) [Example 152]",1.06
19,"CC1(NC(=O)O[C@@H]2CC[C@H](c3cc(NC(=O)CC4COc5ccccc54)n[nH]3)C2)CCOC1 (single isomer, unassigned) [Example 490]",3.68
